Ten compounds from patent US8143263B2, “Therapeutic agents” (Astrazeneca AB, priority 2008, dated 2012) can be followed below.

The target in this test is T1, recombinant human pancreatic GLK (Homo sapiens, UniProt P35557).
T1 sequence (P35557 1-465): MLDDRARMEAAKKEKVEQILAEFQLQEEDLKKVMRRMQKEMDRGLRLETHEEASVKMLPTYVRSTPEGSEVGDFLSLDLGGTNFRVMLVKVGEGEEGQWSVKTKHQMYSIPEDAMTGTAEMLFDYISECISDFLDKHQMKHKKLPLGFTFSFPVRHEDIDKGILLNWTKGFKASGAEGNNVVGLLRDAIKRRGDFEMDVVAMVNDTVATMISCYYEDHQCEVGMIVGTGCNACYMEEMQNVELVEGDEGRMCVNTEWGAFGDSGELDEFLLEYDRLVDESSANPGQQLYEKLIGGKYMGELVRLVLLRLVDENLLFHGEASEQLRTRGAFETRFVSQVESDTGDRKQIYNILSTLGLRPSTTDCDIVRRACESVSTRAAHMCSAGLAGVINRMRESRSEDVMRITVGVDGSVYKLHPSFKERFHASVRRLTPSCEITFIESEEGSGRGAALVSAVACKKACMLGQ
Nature of the test: biochemical.
What is called EC50 is the midpoint of the concentration-response curve. Turning to `O=C(Nc1ccc(F)cn1)[C@H](CN1CC(O)C1)Oc1ncnc2c1cnn2-c1ncccc1Cl` [Example 243, (2S)-2-[1-(3-chloro-2-pyridyl)pyrazolo[3,4-d]pyrimidin-4-yl]oxy-N-(5-fluoro-2-pyridyl)-3-(3-hydroxyazetidin-1-yl)propanamide], the 50% effective concentration (EC50) amounted to 570 nM. For `O=C(Nc1ccc(F)cn1)[C@H](COCCO)Oc1ncnc2c1cnn2-c1c(F)cccc1Cl` [Example 244, (2S)-2-[1-(2-chloro-6-fluoro-phenyl)pyrazolo[3,4-d]pyrimidin-4-yl]oxy-N-(5-fluoro-2-pyridyl)-3-(2-hydroxyethoxy)propanamide] the value was 330 nM; for `C[C@H](CO)OC[C@H](Oc1ncnc2c1cnn2-c1ccccc1Cl)C(=O)Nc1ccc(F)cn1` [Example 245, (2S)-2-[1-(2-chlorophenyl)pyrazolo[3,4-d]pyrimidin-4-yl]oxy-N-(5-fluoro-2-pyridyl)-3-[(1R)-2-hydroxy-1-methyl-ethoxy]propanamide], 470 nM. For `C[C@H](CO)OC[C@H](Oc1ncnc2c1cnn2-c1c(Cl)cccc1C#N)C(=O)Nc1ccc(F)cn1` [Example 246, (2S)-2-[1-(2-chloro-6-cyano-phenyl)pyrazolo[3,4-d]pyrimidin-4-yl]oxy-N-(5-fluoro-2-pyridyl)-3-[(1R)-2-hydroxy-1-methyl-ethoxy]propanamide], the EC50 turned out to be 220 nM. For `Cc1cnc(NC(=O)[C@H](CO[C@H](C)CO)Oc2ncnc3c2cnn3-c2ccccc2Cl)cn1` [Example 247, (2S)-2-[1-(2-chlorophenyl)pyrazolo[3,4-d]pyrimidin-4-yl]oxy-3-[(1R)-2-hydroxy-1-methyl-ethoxy]-N-(5-methylpyrazin-2-yl)propanamide] the value was 590 nM. For `O=C(Nc1ccc(F)cn1)[C@H](COCCO)Oc1ncnc2c1cnn2-c1ccccc1Cl` [Example 248, (2S)-2-[1-(2-chlorophenyl)pyrazolo[3,4-d]pyrimidin-4-yl]oxy-N-(5-fluoro-2-pyridyl)-3-(2-hydroxyethoxy)propanamide] the value was 640 nM. With `Cc1cnc(NC(=O)[C@H](CN2CC(O)C2)Oc2ncnc3c2cnn3-c2ncccc2Cl)s1` [Example 249, (2S)-2-[1-(3-chloro-2-pyridyl)pyrazolo[3,4-d]pyrimidin-4-yl]oxy-3-(3-hydroxyazetidin-1-yl)-N-(5-methylthiazol-2-yl)propanamide], the concentration for a half-maximal effect (EC50) came to 590 nM. For `O=C(Nc1ccccn1)[C@H](COCCO)Oc1ncnc2c1cnn2-c1c(Cl)cccc1Cl` [Example 250, (2S)-2-[1-(2,6-dichlorophenyl)pyrazolo[3,4-d]pyrimidin-4-yl]oxy-3-(2-hydroxyethoxy)-N-(2-pyridyl)propanamide], the EC50 stood at 230 nM.

On to `C[C@H](CO)OC[C@H](Oc1ncnc2c1cnn2-c1c(Cl)cccc1C#N)C(=O)Nc1ccc(C#N)cn1` [Example 251, (2S)-2-[1-(2-chloro-6-cyano-phenyl)pyrazolo[3,4-d]pyrimidin-4-yl]oxy-N-(5-cyano-2-pyridyl)-3-[(1R)-2-hydroxy-1-methyl-ethoxy]propanamide], for which the EC50 came out at 350 nM. For `C[C@H](CO)OC[C@H](Oc1ncnc2c1cnn2-c1ccccc1Cl)C(=O)Nc1ccc(C#N)cn1` [Example 252, (2S)-2-[1-(2-chlorophenyl)pyrazolo[3,4-d]pyrimidin-4-yl]oxy-N-(5-cyano-2-pyridyl)-3-[(1R)-2-hydroxy-1-methyl-ethoxy]propanamide] the value was 450 nM.
